# From patent US11596615B2, “Compositions and methods for treatment of insulin resistance” (Temple University—Of The Commonwealth System Of Higher …, priority 2016, dated 2023)
# Entries after “also recorded” stand apart in the source; their conditions may differ. Structures can show the parent of a compound that is named as a salt.
# Assays:
# [1] = system: mice fed high fat diet (HFD); assay: Blood glucose after glucose administration in overnourished mice (Example 10); type: in vivo, C57BL/6J mice; settings: 10 μg/mL in drinking water, FIG. 7
# Text: Twenty-four C57BL/6J mice 8-weeks old were fed with either regular CHOW diet or high fat diet (HFD, 60% of fat content). Eight animals received CHOW diet for one week, 8 animals had been fed already with HFD for two weeks and were continuously fed with the same diet for one more week (for a total of 3 weeks feeding) and 8 animals started HFD at the time of the animal selection (2 weeks feeding). Each group was divided in half, 4 animals received regular water and the other 4 received the (S)-2-amino-6-((3-aminopropyl)amino)hexanoic acid dihydrochloride (10 μg/mL) dissolved in the water. Animals were fasted for 5 hours, weighed, and blood glucose measured by tail clipping. In addition, glucose (1 mg/g of body weight) was administered intraperitoneally. Additional glucose levels were measured at 20, 40 and 80 minutes after glucose administration. Heavy glucose was also administered intraperitoneally to further measure glucose uptake from tissues. Glucose level was taken again at 140 minutes. Animals were euthanized under anesthesia (isoflurane), and blood, liver, fat and muscle were collected.
# [2] = Solution stability in mouse plasma; type: in vitro ADME, mouse (male C57BL/6); settings: male, C57BL/6; 1 μM in mouse plasma, 37° C.
# Experimental: The stability of the title compound was tested in the following media, in the following concentrations: (i) 1 μM in mouse (male C57BL/6) plasma, (ii) 1 μM in PBS (with Ca and Mg) (control treatment); (iii) 5 μM in stimulated gastric fluid (SGF; 0.2% NaCl; 84 mM HCl; 0.32% pepsin; pH 1.2); (iv) 5 μM in stimulated intestinal fluid (SIF; 50 mM KP, pH 6.8; 10 mg/ml pancreatin); and (v) 5 μM in PBS (+Ca and Mg) (control treatment). The results are as follows: (i) 1 μM in mouse plasma, t1/2>6 hr at 37° C.; (ii) 1 μM in PBS, t1/2>6 hr at 37° C.; (iii) 5 μM in SGF, t1/2>3 hrs at 37° C.; (iv) 5 μM in SIF, t1/2>3 hrs at 37° C.; and (v) 5 μM in PBS, t1/2>3 hr at 37° C. The “t1/2” values are the maximum time employed for the respective assays.
# 3T3-L1 adipocytes = assay: 13C6-glucose uptake in 3T3-L1 adipocytes exposed to 4HNE/H2O2 (Example 7); type: cell-based, mouse; settings: 0.1, 1, 10 and 100 μM compound for 2 h, then 4HNE/H2O2 100 μM each 1 h; FIG. 5; dihydrochloride
# Experimental: 3T3-L1 Mouse Embryonic Fibroblasts, ATCC® CL-173™ were differentiated to adipocytes using chemically-induced differentiation according to the ATCC guidelines. Differentiated 3T3-L1 Adipocyte 4e^6 cell were incubated overnight in glucose free media (RPMI ref. #11879 Gibco) containing 1% dialyzed fetal bovine serum (ref. #26400 Gibco) at 37° C. Cells were washed with and incubated for 1 h with glucose free media before compound exposure. Cells were incubated with and without increasing concentration (0.1, 1, 10 and 100 μM) of (S)-2-amino-6-((3-aminopropyl)amino)hexanoic acid dihydrochloride (title compound) for 2 h at 37° C., followed by 3 wash steps in glucose free phosphate buffer. […]
# Cells were washed with PBS, followed by addition of glucose free DMEM medium containing 20 mM of ^13C6 glucose, 10 mM, 2-fluorodeoxyglucose (2-FDG) and insulin 10 pM (Sigma I5500) incubated for 1 hour at 37° C. 2-FDG is an inhibitor of glucose metabolism, thus preventing glucose breakdown and allowing its accumulation to further be measure and quantified. […]
# The detection of the ^13C6 glucose, was carried out using a Waters Xevo™ triple quadrupole tandem mass spectrometer (Waters Corp., Manchester, UK). […] Chromatographic and mass spectrum data were collected and analyzed with Waters MassLynx v4.1 software. […]
# [3] = Adduct formation with 4-HNE by mass spectroscopy; settings: equimolar 10 μM APL and 4-HNE, 1 hr incubation at 37° C.; FIG. 6A, 6B; dihydrochloride
# Experimental: The experimental design was to incubate equimolar amounts (10 μM) of APL (dihydrochloride) with 4-HNE and measure adduct formation by mass spectroscopy before and after 1 hr incubation at 37° C.
# [4] = Body weight of diet-induced (HFD) obese mice over two weeks; type: in vivo; settings: 10 mg/kg/day
# Experimental: The body weights of diet-induced (HFD) mice with and without (S)-2-amino-6-((3-aminopropyl)amino)hexanoic acid dihydrochloride (10 mg/kg/day) were measured over 14 days.
# In contrast, poglitazone is known to cause water retention and weight gain.
smiles,measurement,setting,value
"NCCCNCCCC[C@H](N)C(=O)O [APL, (S)-2-amino-6-((3-aminopropyl)amino)hexanoic acid dihydrochloride]",glucose uptake impairment induced by overnutrition (blood glucose levels),[1],effective in counteracting glucose uptake impairment induced by overnutrition
same,half-life at 1 μM,[2],> 6 h
same,glucose uptake impairment induced by 4-HNE and H2O2,3T3-L1 adipocytes,"able to prevent the glucose uptake impairment induced by 4-HNE and H2O2, in a dose-dependent fashion; also recorded: prevented glucose uptake-impairing effect of 4-HNE and H2O2, in a dose-dependent fashion"
same,adduct formation with 4-HNE,[3],forms an adduct with 4-HNE after 1 hr of incubation; also recorded: forms an adduct with 4-NHE
same,body weight,"[4]; HFD obese mice, two weeks, FIG. 9",no effect on body weight
same,toxicity (from body weight),"[4]; mouse, in vivo",lack of significant toxicity
